The results in this text go back to patent US20220162191A1, “SMALL MOLECULE MODULATORS OF IL-17” (LEO PHARMA A/S, priority 2019, published 2022).

In general, EC50 refers to the concentration at which the effect is half-maximal.

In the test the target is T1, human IL-17AA (Homo sapiens, UniProt Q16552).
T1 construct: host or cells: HEK (human embryonic kidney) cells
T1 sequence (Q16552 24-155) 1: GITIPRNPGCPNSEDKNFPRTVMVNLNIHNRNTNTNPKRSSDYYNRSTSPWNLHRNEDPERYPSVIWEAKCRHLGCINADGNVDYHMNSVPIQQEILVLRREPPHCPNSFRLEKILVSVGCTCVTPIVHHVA
T1 sequence (Q16552 24-155) 2: T1 sequence (Q16552 24-155) 1
The test can be described thus: IL-8 release assay in human epithelial keratinocytes adult (HEKa). The settings on record: 3 ng/ml human IL-17AA + 10 ng/ml human TNFalpha, 68-72 h, IL-8 by HTRF, read-out: Rel EC50 L-8 release assay. The class given is cell-based. In outline:
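Adult human keratinocytes in Epilife with HKGS minus hydrocortisone, treated with compound then stimulated with final 3 ng/ml HEK-derived human IL-17AA plus 10 ng/ml TNF-alpha for 68–72 h at 37 °C; TNF-alpha alone defines 100% inhibition. Secreted IL-8 by HTRF; relative IC50 and Emax from four-parameter fits.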

As for `Cc1n[nH]c(C)c1-c1ccc(NC(=O)[C@@H](NC(=O)c2ccnn2C)[C@@H]2CCCc3ccc(-c4ccnc(N5C[C@H]6C[C@@H]5CO6)c4)cc32)cc1` [Example 394, N-[(1S)-2-[4-(3,5-dimethyl-1H-pyrazol-4-yl)anilino]-1-[(1R)-7-[2-[(1R,4R)-2-oxa-5-azabicyclo[2.2.1]heptan-5-yl]-4-pyridyl]tetralin-1-yl]-2-oxo-ethyl]-2-methyl-pyrazole-3-carboxamide], the EC50 was less than 0.1 µM. The figure for `Cc1n[nH]cc1-c1ccc(NC(=O)C(NC(=O)OC2CC2)C(c2ccccc2)c2cccc(-c3ccc(=O)n(C(C)C)c3)c2)cc1` (single isomer, unassigned; diastereomer 4) [Example 245, cyclopropyl N-[1-[[3-(1-isopropyl-6-oxo-3-pyridyl)phenyl]-phenyl-methyl]-2-[4-(3-methyl-1H-pyrazol-4-yl)anilino]-2-oxo-ethyl]carbamate (Diastereomer 4)] is less than 0.1 µM; for `Cn1cncc1-c1ccc(NC(=O)C(Cc2cc(-c3ccnc(N4CC(O)C4)c3)ccc2Cl)NC(=O)c2ccnn2C)cc1` (stereo not shown) [Example 193, N-[1-[[2-chloro-5-[2-(3-hydroxyazetidin-1-yl)-4-pyridyl]phenyl]methyl]-2-[4-(3-methylimidazol-4-yl)anilino]-2-oxo-ethyl]-2-methyl-pyrazole-3-carboxamide] it is 0.1 to 1 µM; for `Cn1cnnc1-c1ccc(NC(=O)C(Cc2cc(-c3ccc(O)c(C4=NCCCO4)c3)ccc2Cl)NC(=O)c2ccnn2C)cc1` (stereo not shown) [Example 178, N-[1-[[2-chloro-5-[3-(5,6-dihydro-4H-1,3-oxazin-2-yl)-4-hydroxy-phenyl]phenyl]methyl]-2-[4-(4-methyl-1,2,4-triazol-3-yl)anilino]-2-oxo-ethyl]-2-methyl-pyrazole-3-carboxamide] it is 0.1 to 1 µM.

Regarding `Cc1n[nH]c(C)c1-c1ccc(NC(=O)[C@@H](NC(=O)C2(F)CC2)[C@@H]2CCc3ccc(-c4cc(N5CC(F)C5)ncn4)cc32)cc1` [Example 376, N-[(1S)-2-[4-(3,5-dimethyl-1H-pyrazol-4-yl)anilino]-1-[(1R)-6-[6-(3-fluoroazetidin-1-yl)pyrimidin-4-yl]indan-1-yl]-2-oxo-ethyl]-1-fluoro-cyclopropanecarboxamide], the EC50 lay within 0.1 to 1 µM.

Regarding `CC(C)n1cc(-c2ccc(Cl)c(C[C@H](NC(=O)C(C)(F)F)C(=O)Nc3ccc(-c4nncn4C)cc3)c2)ccc1=O` [Example 283, N-[(1S)-1-[[2-chloro-5-(1-isopropyl-6-oxo-3-pyridyl)phenyl]methyl]-2-[4-(4-methyl-1,2,4-triazol-3-yl)anilino]-2-oxo-ethyl]-2,2-difluoro-propanamide], the EC50 is more than 1 µM. For `CC(C)n1cc(-c2cccc(C(c3ccccc3)C(NC(=O)OC3CC3)C(=O)Nc3ccc(-c4cncn4C)cc3)c2)ccc1=O` (single isomer, unassigned; diastereomer 3) [Example 240, cyclopropyl N-[1-[[3-(1-isopropyl-6-oxo-3-pyridyl)phenyl]-phenyl-methyl]-2-[4-(3-methylimidazol-4-yl)anilino]-2-oxo-ethyl]carbamate (Diastereomer 3)], the 50% effective concentration (EC50) was more than 1 µM.

On to `COCOc1ccc(-c2ccc(Cl)c(CC(NC(=O)c3ccnn3C)C(=O)Nc3ccc(-c4nncn4C)cc3)c2)cc1C(=O)N1CCC1` (stereo not shown) [Example 156, N-[1-[[5-[3-(azetidine-1-carbonyl)-4-(methoxymethoxy)phenyl]-2-chloro-phenyl]methyl]-2-[4-(4-methyl-1,2,4-triazol-3-yl)anilino]-2-oxo-ethyl]-2-methyl-pyrazole-3-carboxamide], for which the EC50 was more than 1 µM.

Consider `CC(C)n1cc(-c2ccc(Cl)c(C[C@H](NC(=O)O[C@H](C)C(F)(F)F)C(=O)Nc3ccc(-c4nncn4C)cc3)c2)ccc1=O` [Example 286, [(1R)-2,2,2-trifluoro-1-methyl-ethyl] N-[(1S)-1-[[2-chloro-5-(1-isopropyl-6-oxo-3-pyridyl)phenyl]methyl]-2-[4-(4-methyl-1,2,4-triazol-3-yl)anilino]-2-oxo-ethyl]carbamate], for which the EC50 is more than 1 µM. The figure for `Cc1n[nH]c(C)c1-c1ccc(NC(=O)[C@H](Cc2cc(-c3ccc(=O)n(C(C)C)c3)ccc2Cl)NC(=O)c2ccnn2C)cc1O` [Example 177, N-[(1S)-1-[[2-chloro-5-(1-isopropyl-6-oxo-3-pyridyl)phenyl]methyl]-2-[4-(3,5-dimethyl-1H-pyrazol-4-yl)-3-hydroxy-anilino]-2-oxo-ethyl]-2-methyl-pyrazole-3-carboxamide] is less than 0.1 µM; for `CC(C)n1cc(-c2ccc3c(c2)[C@@H]([C@@H](NC(=O)c2ccnn2C)C(=O)Nc2ccc(-c4cncn4C)cc2)CCC3)ccc1=O` [Example 48, N-[(1R)-1-[(1S)-7-(1-isopropyl-6-oxo-3-pyridyl)tetralin-1-yl]-2-[4-(3-methylimidazol-4-yl)anilino]-2-oxo-ethyl]-2-methyl-pyrazole-3-carboxamide] it is more than 1 µM. The figure for `CN(C)c1cc(-c2ccc(Cl)c(CC(NC(=O)c3ccnn3C)C(=O)Nc3ccc(-c4cncn4C)cc3)c2)ccn1` (stereo not shown) [Example 162, N-[1-[[2-chloro-5-[2-(dimethylamino)-4-pyridyl]phenyl]methyl]-2-[4-(3-methylimidazol-4-yl)anilino]-2-oxo-ethyl]-2-methyl-pyrazole-3-carboxamide] is 0.1 to 1 µM; for `Cc1n[nH]c(C)c1-c1ccc(NC(=O)[C@@H](NC(=O)c2ccnn2C)[C@@H]2CCc3ccc(-c4ccnc(C(C)(C)O)c4)cc32)cc1` [Example 16, N-[(1S)-2-[4-(3,5-dimethyl-1H-pyrazol-4-yl)anilino]-1-[(1R)-6-[2-(1-hydroxy-1-methyl-ethyl)-4-pyridyl]indan-1-yl]-2-oxo-ethyl]-2-methyl-pyrazole-3-carboxamide] it is less than 0.1 µM.
